# Paper PMC9837035 (Nature Communications, 2023)
# “And” between values parts separate entries of the source, which are not always exact repeats. Equal entries are not always repeated.
# How the values were obtained:
# Format in all cases: cell-based, human
# [1] = tested on: H3K9me2 at the β-globin locus; assay: ChIP-qPCR with antibody against H3K9me2 in HUDEP-2 cells; parameters: ChIP-qPCR using antibodies against H3K9me2 in HUDEP-2 cells: scale not given here; conditions: for ChIP-qPCR using antibodies against H3K9me2 in HUDEP-2 cells: experiments 1-3, a/b replicates
# Protocol: A total of 0.5–1 × 10^6 cells were cross-linked with 1% formaldehyde for 10 min at room temperature and the reaction was quenched with 250 mM glycine. Cross-linked cells were then lysed with buffer 1 (15 mM Tris-HCl (pH 7.5), 60 mM KCl, 15 mM NaCl, 5 mM MgCl2, 0.1 mM EGTA, 300 mM sucrose, […], 1 mM phenylmethanesulfonyl fluoride (PMSF), 0.5% NP40) and incubated on ice for 10 min. After centrifugation, the pellet was re-suspended in buffer 2 (15 mM Tris-HCl (pH 7.5), 60 mM KCl, 15 mM NaCl, 5 mM MgCl2, 0.1 mM EGTA, 1.2 M sucrose, […], 1 mM PMSF). After centrifugation, the pellet was then re-suspended in MNase buffer (50 mM Tris-HCl (pH 7.5), 1 mM CaCl2, 4 mM MgCl2, 320 mM sucrose, 1 mM PMSF) and digested with 100 U of micrococcal nuclease (Takara) at 37 °C for 15 min. After the reaction was quenched with 20 mM EDTA, the supernatants were incubated with antibodies (anti-H3K9me2 (1:100), Abcam, ab1220; anti-H3K9ac (1:100), Active Motif, 39917; Goat anti-IgG (H + L) (1:100), Jackson Immunoresearch; anti-BCL11A (1:100), Novus Biologicals, NB600-261; anti-ZBTB7A (1:100), Thermo Fisher Scientific, eBioscience (13E9); anti-CHD3 (1:100), Novus Biologicals, NB-100-60412; anti-CHD4 (1:100), abcam, ab240640) and Protein A/G PLUS-Agarose (Santa Cruz Biotechnology) overnight at 4 °C. Beads were washed sequentially once with the following buffers: wash buffer A (50 mM Tris-HCl (pH 7.5), 75 mM NaCl, 10 mM EDTA, 0.01% NP40), wash buffer B (50 mM Tris-HCl (pH 7.5), 100 mM NaCl, 10 mM EDTA, 0.01% NP40), wash buffer C (50 mM Tris-HCl (pH 7.5), 175 mM NaCl, 10 mM EDTA, 0.01% NP40). After treatment with proteinase K in buffer 4 (20 mM Tris-HCl (pH 8.0), 10 mM EDTA, 400 mM NaCl, 0.5% SDS) at 56 °C overnight, DNA was purified using the FastGene Gel/PCR Extraction Kit (Nippon Genetics). The samples were analyzed by qPCR. Primers are listed in Supplementary Table 10. ChIP-seq experiments were performed by GENEWIZ. Tracks were visualized using the integrative genome viewer. ChIP-seq analysis were analyzed Cutadapt (V1.9.1) for QC, FastQC (V0.10.1) for QC assessment, Bowtie (V2.1.0) for mapping, strand cross-correlation (SCC) for ChIP quality assessment, MACS2 for peak calling, and R package ChIPpeakAnno for Peak annotated.
# CD34+ cells = assay: Flow cytometry of erythroid differentiation (CD45, glycophorin A)
# Protocol: For the analysis of HbF expression, HUDEP-2 cells or cells differentiated from human CD34 + progenitor cells were fixed in 0.05% glutaraldehyde for 10 min, then washed two times with PBS containing 2% FBS (PBS/2% FBS) and permeabilized with 0.1% Triton X-100 (prepared in PBS/2% FBS; Life Technologies) for 5 min. After washing with PBS/2% FBS two times, cells were stained with allophycocyanin (APC)-conjugated HbF antibody (1:1, Invitrogen, MHFH05). One million cells were incubated with the HbF–APC antibody for 30 min in the dark at 4 °C. Cells were washed twice with PBS/2% FBS, then suspended in 0.2 ml PBS/2% FBS and analyzed using a FACSCalibur (Becton Dickinson). To assess erythroid differentiation, hematopoietic cells differentiated from human CD34 cells were stained with FITC-conjugated CD45 antibody (1:1, Becton Dickinson, 555482) and APC-conjugated glycophorin A antibody (1:20, Becton Dickinson, 551336). Stained cells were suspended in 0.2 ml PBS/2% FBS containing 1 μg/ml propidium iodide (Sigma) and analyzed by FACSCalibur. The results of flow cytometer were further analyzed by FlowJo software (Becton Dickinson).
# HUDEP-2 cells = assay: RNA-seq analysis of HUDEP-2 cells
# Protocol: Total RNAs were extracted using an RNeasy Plus Mini Kit (QIAGEN). RNA-seq experiments were performed by GENEWIZ or Rhelixa. Gene Ontology (GO) analysis in Supplementary Fig. 7a, the statistical test was performed by Wallenius in goseq software. In Supplementary Tables 8(1-3), the statistical test (adjp) was determined using multiple comparisons analysis, Benjamini-Hochberg adjusted FDR test of the default of AltAnalyze (Ver. 2.0).
structure (smiles),measurement,setting,value
"NC(=O)NO [Hydroxyurea, hydroxyurea]",ChIP-qPCR using antibodies against H3K9me2 in HUDEP-2 cells,[1]; BGLT3 locus,0.3036 and 0.9734 and 0.09549 and 0.1907 and 0.4324 and 0.08257
same,ChIP-qPCR using antibodies against H3K9me2 in HUDEP-2 cells,[1]; HS1,0.1874 and 0.4067 and 0.1711 and 0.2985 and 0.4573 and 0.2803
same,ChIP-qPCR using antibodies against H3K9me2 in HUDEP-2 cells,[1]; HS2,0.813 and 0.5625 and 0.04813 and 0.5561 and 0.988
same,ChIP-qPCR using antibodies against H3K9me2 in HUDEP-2 cells,[1]; HS3,0.3829 and 1.033 and 0.3275 and 0.3135 and 0.5984 and 0.1213
same,ChIP-qPCR using antibodies against H3K9me2 in HUDEP-2 cells,[1]; HS4,0.2695 and 0.4846 and 0.05083 and 0.7217 and 0.09433
same,H3K9me2 levels at the β-globin gene locus,"[1]; HUDEP-2, 200 μM, 4 days",did not alter H3K9me2 levels
same,ChIP-qPCR using antibodies against H3K9me2 in HUDEP-2 cells,[1]; β-globin promoter,0.2611 and 0.4698 and 0.1317 and 0.1934 and 0.3991 and 0.1179
same,ChIP-qPCR using antibodies against H3K9me2 in HUDEP-2 cells,[1]; γ-globin promoter,0.6385 and 1.7009 and 0.2449 and 0.8192 and 0.4081
same,ChIP-qPCR using antibodies against H3K9me2 in HUDEP-2 cells,[1]; δ-globin promoter,0.1111 and 0.2374 and 0.06666 and 0.1168 and 0.2688 and 0.05187
Cc1c(C(=O)NC(CCC2CC2)C(=O)Nc2ccc(C#N)cc2)[nH]c2c1C(=O)CC(C)(C)C2 (stereo not drawn) [RK-701],erythroid differentiation,CD34+ cells,without affecting cell viability or erythroid differentiation
same,FoldChange BCL11A,HUDEP-2 cells; HUDEP-2,1.17±0.09
same,FoldChange BGLT3,HUDEP-2 cells; HUDEP-2,3.40±0.34
same,FoldChange CHD3,HUDEP-2 cells; HUDEP-2,0.88±0.02
same,FoldChange CHD4,HUDEP-2 cells; HUDEP-2,1.00±0.02
same,FoldChange DNMT1,HUDEP-2 cells; HUDEP-2,0.97±0.02
same,FoldChange GATA1,HUDEP-2 cells; HUDEP-2,0.97±0.04
same,FoldChange GATAD2A,HUDEP-2 cells; HUDEP-2,0.96±0.03
same,FoldChange GATAD2B,HUDEP-2 cells; HUDEP-2,1.02±0.04
same,FoldChange HBA1,HUDEP-2 cells; HUDEP-2,1.15±0.13
same,FoldChange HBA2,HUDEP-2 cells; HUDEP-2,1.19±0.04
same,FoldChange HBBP1,HUDEP-2 cells; HUDEP-2,0.99±0.02
same,FoldChange HBD,HUDEP-2 cells; HUDEP-2,1.01±0.03
same,FoldChange HBE1,HUDEP-2 cells; HUDEP-2,4.70±0.71
same,FoldChange HBG1,HUDEP-2 cells; HUDEP-2,2.51±0.58
same,FoldChange HBG2,HUDEP-2 cells; HUDEP-2,3.33±0.28
same,FoldChange HBM,HUDEP-2 cells; HUDEP-2,0.96±0.04
same,FoldChange HBQ1,HUDEP-2 cells; HUDEP-2,1.09±0.05
same,FoldChange HBZ,HUDEP-2 cells; HUDEP-2,0.31±0.08
same,FoldChange HDAC1,HUDEP-2 cells; HUDEP-2,0.96±0.03
same,FoldChange HDAC2,HUDEP-2 cells; HUDEP-2,0.95±0.03
same,FoldChange IKZF1,HUDEP-2 cells; HUDEP-2,1.07±0.01
same,FoldChange KLF1,HUDEP-2 cells; HUDEP-2,1.02±0.02
same,FoldChange LDB1,HUDEP-2 cells; HUDEP-2,1.03±0.04
same,FoldChange LIN28B,HUDEP-2 cells; HUDEP-2,0.91±0.07
same,FoldChange LMO2,HUDEP-2 cells; HUDEP-2,1.28±0.04
same,FoldChange MBD2,HUDEP-2 cells; HUDEP-2,1.03±0.02
same,FoldChange MBD3,HUDEP-2 cells; HUDEP-2,0.96±0.02
same,FoldChange MIR26B,HUDEP-2 cells; HUDEP-2,0.96±0.78
same,FoldChange MTA1,HUDEP-2 cells; HUDEP-2,0.92±0.04
same,FoldChange MTA2,HUDEP-2 cells; HUDEP-2,0.95±0.02
same,FoldChange MYB,HUDEP-2 cells; HUDEP-2,0.91±0.01
same,FoldChange NR2C1,HUDEP-2 cells; HUDEP-2,1.11±0.04
same,FoldChange NR2C2,HUDEP-2 cells; HUDEP-2,0.97±0.04
same,FoldChange RBBP4,HUDEP-2 cells; HUDEP-2,0.96±0.03
same,FoldChange RBBP7,HUDEP-2 cells; HUDEP-2,0.98±0.03
same,FoldChange SOX6,HUDEP-2 cells; HUDEP-2,1.70±0.07
same,FoldChange TAL1,HUDEP-2 cells; HUDEP-2,1.12±0.04
same,FoldChange TCF3,HUDEP-2 cells; HUDEP-2,0.92±0.02
same,FoldChange ZBTB7A,HUDEP-2 cells; HUDEP-2,0.98±0.04
same,FoldChange ZFPM1,HUDEP-2 cells; HUDEP-2,0.90±0.09
same,number of genes transcriptionally upregulated,HUDEP-2 cells; HUDEP-2,204 genes
same,FoldChange HBB,"HUDEP-2 cells; HUDEP-2, 1 μM, 4 days",1.13±0.05
same,log2FoldChange CTD-2643I7.1 (BGLT3),"HUDEP-2 cells; HUDEP-2, 1 μM, 4 days",1.72
same,log2FoldChange HBE1,"HUDEP-2 cells; HUDEP-2, 1 μM, 4 days",2.16
same,log2FoldChange HBG1,"HUDEP-2 cells; HUDEP-2, 1 μM, 4 days",1.23
same,log2FoldChange HBG2,"HUDEP-2 cells; HUDEP-2, 1 μM, 4 days",1.73
same,log2FoldChange HBZ,"HUDEP-2 cells; HUDEP-2, 1 μM, 4 days",-1.67
